The source of these data is patent US9073835B2, “N-acylthiourea and N-acylurea inhibitors of the Hedgehog protein signalling pathway” (Centre National De La Recherche Scientifique, priority 2008, dated 2015).

Some results are limits rather than exact numbers.

Data set [1] concerns Hedgehog protein signaling pathway. In words: Inhibition of SAG-induced alkaline phosphatase activity (differentiation) in C3H10T1/2 cells. As to conditions: for inhibition at 10 µM: C3H 10T1/2, 10 μM test compound. The format is cell-based. The protocol: The effect of compounds with formula (I) as claimed in the invention on inhibition of the Hedgehog protein signaling pathway was determined by analysis of differentiation in the pluripotent fibroblast cell line C3H10T1/2 after activation of this pathway in these cells using a synthetic activator: SAG.
The compounds with formula (I) to be tested were dissolved in dimethylsulfoxide to a concentration of 10 mM, then stored at a temperature of −20° C. until use.
The pluripotent fibroblast cell line C3H10T1/2 (ATCC) was cultivated under the conditions recommended by the ATCC. These cells were activated using 0.1 μM of SAG, employing the methods described by Chen et al., Proc. Natl. Acad. Sci. USA, 2002, 99, 14071 and Frank-Kamenetsky et al., J. Biol., 2002, 1, 10.
Activation with SAG provokes differentiation of the cell line and allows them to express alkaline phosphatase. It is then possible to measure the activity of the Hedgehog protein signaling pathway by measuring the alkaline phosphatase activity.
The C3H10T1/2 cells were plated onto 96-well plates at a density of […], 24 hours before addition of the test compounds in a concentration of 1 nM to 30 μM and in the presence of 0.1 μM of SAG using DMEM supplemented with 10% fetal calf serum as the culture medium. The tests were carried out in quadruplicate. The plates were then incubated for 5-6 days at a temperature of 37° C. in an atmosphere of 5% CO2. The cells were washed in a cold phosphate buffer (“Phosphate Buffer Serum”: PBS) then lysed by sonication at 4° C. in 50 μl of a solution containing 0.9% of NaCl and 0.2% of Triton X-100.
By way of comparison, the activity of a known inhibitor of the Hedgehog protein signaling pathway, CURIS 61 414, as described, for example, by Frank-Kamenetsky M. et al. (J. Biol., 2002, 1, 10), was tested under the same conditions as those used to test the various compounds with formula (I) as claimed in the invention.
The alkaline phosphatase activity measurement in the lysates obtained was then carried out using the method described by Pepinsky et al. (J. Biol. Chem., 1998, 273, 14037). After adding 100 μl of reaction buffer (200 mM Tris-HCl; pH 10.5; 0.4 M of 2-amino-2-methylpropanol and 8 mM of MgCl2) and 50 μl of substrate (4 mM of disodium p-nitrophenyl phosphate), the lysates were incubated at 37° C. for 30-60 min, then the optical density was read at a wavelength of 415 nm.

Data set [2] concerns the target T1, mouse Smoothened protein (Mus musculus, UniProt P56726).
T1 construct: expressed in transfected cells; host or cells: HEK293
The experiment in a line: Competitive Bodipycyclopamine binding on HEK293 cells transfected with mouse Smoothened. Particulars: for IC50: 5 nM Bodipycyclopamine, 2 hours at 37° C., HEK293 cells expressing mouse Smoothened; for Bodipycyclopamine binding competition: fluorescence microscopy, FIGS. 2 and 3. The protocol:
HEK293 cells were plated in a quantity of 70 000 cells per well onto glass cover slips treated with poly-D-lysine into 24-well plates, and transfected the next day with 0.25 μg of plasmid encoding the mouse Smoothened protein (Masdeu C., Faure H., Coulombe J., Schoenfelder A., Mann A., Brabet I., Pin J-P., Traiffort E. and Ruat M., Identification and characterization of Hedgehog modulator properties after functional coupling of Smoothened to G15, Biochem Biophys Res. Commun., 2006, 349:471-479), using 0.7 μL of fugene6 (Roche Biochemicals). After 48 hours, the culture medium was eliminated, the cells were rinsed once with 1 mL of a phosphate buffer solution, PBS (Phosphate Buffered Saline), then fixed for 20 minutes in the presence of an iced 4% solution of paraformaldehyde (PFA) and 0.12M glucose in a PBS phosphate buffer solution. The cells were then rinsed twice and washed twice for 5 minutes with 1 mL of a phosphate buffer solution and 0.5% of fetal calf serum (PBS-FCS). Next, 1 mL of Bodipycyclopamine (BC) (Chen, J. K., Taipale, J., Cooper, M. K., and Beachy, P. A., Genes Dev., 2002, 16 (21), 2743-2748), diluted to 5 nM in PBS-FCS, in the presence of compounds 31 and 38 of the invention, was applied to the cells for 2 hours at 37° C. The cells were then washed twice for 5 minutes with 1 mL of PBS-FCS and brought into the presence of 1 mL of a PBS 1× phosphate buffer solution. Finally, the cover slips were mounted on a glass slide in the presence of Vectashield containing DAPI (4′,6′-DiAmidino-2-Phenyl Indole) to stain the cell nuclei (Vector).
In FIG. 2, the intensity of the fluorescence was analyzed using Simple PCI 6.2 software (Hamamatsu Corporation), then related to the surface area of the nuclei present in the photograph.

[3] abbreviates: Mus musculus, percentage of alkaline phosphatase activity induced by SAG.
The mark [4] stands for this setting: Mus musculus, C3H 10T1/2, after induction by 0.1 μM SAG.

By inhibition is commonly meant the drop in the measured response relative to a control, in per cent. Higher therefore signals a strong effect. Broadly, the IC50 is the concentration at which inhibition is half-maximal. Low values mean higher potency, high ones lower potency. In general, melting point refers to the temperature, or range, at which the solid turns liquid.

T1 sequence (P56726 33-793): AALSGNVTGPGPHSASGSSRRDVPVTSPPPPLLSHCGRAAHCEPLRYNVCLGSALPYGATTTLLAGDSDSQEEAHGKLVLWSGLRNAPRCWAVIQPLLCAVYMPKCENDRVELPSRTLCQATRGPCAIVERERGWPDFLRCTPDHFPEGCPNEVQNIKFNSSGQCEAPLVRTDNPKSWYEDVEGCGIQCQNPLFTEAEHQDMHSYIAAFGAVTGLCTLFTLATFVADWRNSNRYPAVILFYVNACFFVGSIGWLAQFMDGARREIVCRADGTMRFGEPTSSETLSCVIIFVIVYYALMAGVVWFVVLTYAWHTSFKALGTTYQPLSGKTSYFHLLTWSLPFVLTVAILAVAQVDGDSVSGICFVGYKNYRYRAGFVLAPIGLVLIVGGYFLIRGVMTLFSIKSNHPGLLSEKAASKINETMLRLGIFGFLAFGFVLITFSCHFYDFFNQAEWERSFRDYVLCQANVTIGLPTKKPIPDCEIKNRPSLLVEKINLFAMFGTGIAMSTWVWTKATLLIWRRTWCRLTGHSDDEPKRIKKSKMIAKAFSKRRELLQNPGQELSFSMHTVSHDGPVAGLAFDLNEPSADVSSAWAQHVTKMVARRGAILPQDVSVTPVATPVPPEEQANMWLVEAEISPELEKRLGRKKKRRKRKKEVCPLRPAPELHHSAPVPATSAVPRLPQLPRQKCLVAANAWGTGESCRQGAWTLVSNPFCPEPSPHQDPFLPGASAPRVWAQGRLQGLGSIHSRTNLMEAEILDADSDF

On to `COc1ccc(C(=O)Nc2cccc(NC(=S)NC(=O)c3cc(OC)c(OC)c(OC)c3)c2)cc1` [Compound 1, N-[[[3-(4-methoxy-benzoylamino)phenyl]amino]thioxomethyl]-3,4,5-methoxy-benzamide], for which the melting point is 147 °C. Moreover, the inhibition at 10 µM in data set [1] (setting [3]) was over 80%. For the same compound, the IC50 in data set [1] (setting [4]) fell in the range of 1 to 3 µM.

In the case of `COc1cc(C(=O)NC(=O)Nc2cccc(NC(=O)c3ccccc3)c2)cc(OC)c1OC` [Compound 31, N-[[[3-(benzoylamino)phenyl]amino]oxomethyl]-3,4,5-methoxy-benzamide], the inhibition at 10 µM in data set [1] (setting [3]) is over 80%. Besides, the IC50 in data set [1] (setting [4]) was 0.01 to 1 µM; in data set [2], 0.12 µM. Also, in data set [2], the Bodipycyclopamine binding competition result is recorded as “binding competition was observed”.

With `COc1cc(C(=O)NC(=S)Nc2cc(Cl)cc(NC(=O)c3ccccc3)c2)cc(OC)c1OC` [Compound 35, N-[[[5-chloro-3-(benzoylamino)phenyl]amino]thioxomethyl]-3,4,5-methoxy-benzamide], in data set [1] (setting [3]), the inhibition at 10 µM lay within 20 to 80%.

The compound `COc1cc(C(=O)NC(=O)Nc2ccc(Cl)c(NC(=O)c3ccc(-c4ccccc4)cc3)c2)cc(OC)c1OC` [Compound 37, N-[[[4-Chloro-3-(4-phenyl-benzoylamino)phenyl]amino]oxomethyl]-3,4,5-methoxy-benzamide] returned an inhibition at 10 µM in data set [1] (setting [3]) of 20 to 80%.

On to `COc1cc(C(=O)NC(=S)Nc2ccc(Cl)c(C(=O)Nc3ccc(N(C)C)cc3)c2)cc(OC)c1OC` [Compound 39], for which the inhibition at 10 µM in data set [1] (setting [3]) is over 80%. The half-inhibitory concentration (IC50) in data set [1] (setting [4]) is 1 to 3 µM.

`COc1ccc(NC(=O)c2cc(NC(=S)NC(=O)c3cc(OC)c(OC)c(OC)c3)ccc2Cl)cc1` [Compound 40] returned an inhibition at 10 µM in data set [1] (setting [3]) of 20 to 80%.

For `COc1cc(C(=O)NC(=S)Nc2cc(Br)cc(C(=O)Nc3ccccc3)c2)cc(OC)c1OC` [Compound 41], the inhibition at 10 µM in data set [1] (setting [3]) is 20 to 80%.

In turn, `COc1cc(C(=O)NC(=S)Nc2ccc(Cl)c(C(=O)Nc3ccc(Cl)cc3)c2)cc(OC)c1OC` [Compound 43] returned an inhibition at 10 µM in data set [1] (setting [3]) of over 80%.

In turn, `COc1cc(C(=O)NC(=O)Nc2ccc(Cl)c(C(=O)Nc3ccccc3)c2)cc(OC)c1OC` [Compound 44] registered an inhibition at 10 µM in data set [1] (setting [3]) of 20 to 80%.

`COc1cc(C(=O)NC(=O)Nc2cccc(NC(=O)c3ccc(-c4ccccc4)cc3)c2C)cc(OC)c1OC` [Compound 45] yielded an inhibition at 10 µM in data set [1] (setting [3]) of over 80%. For the same compound, the IC50 in data set [1] (setting [4]) fell in the range of 0.01 to 1 µM.

`COc1cc(C(=O)NC(=S)Nc2cccc(NC(=O)c3ccc(-c4ccccc4)cc3)c2C)cc(OC)c1OC` [Compound 46]: in data set [1] (setting [3]), the inhibition at 10 µM is 5 to 20%.

In data set [1] (setting [3]), `COc1cc(C(=O)NC(=O)Nc2cccc(NC(=O)c3ccc(Cl)cc3)c2)cc(OC)c1OC` [Compound 47, N-[[[-3-(4-chloro-benzoylamino)phenyl]amino]oxomethyl]-3,4,5-methoxy-benzamide] had an inhibition at 10 µM of over 80%.

Compound `COc1cc(OC)c(C(=O)NC(=O)Nc2cccc(NC(=O)c3ccccc3)c2)cc1OC` [Compound 48, N-[[[-3-(benzoylamino)phenyl]amino]oxomethyl]-2,4,5-methoxy-benzamide] returned an inhibition at 10 µM in data set [1] (setting [3]) of 20 to 80%. In data set [1] (setting [4]), this compound displayed a concentration for half-maximal inhibition (IC50) of 1 to 3 µM.

`COc1ccc(C(=O)NC(=O)Nc2cccc(NC(=O)c3ccccc3)c2)cc1` [Compound 49, N-[[[-3-(benzoylamino)phenyl]amino]oxomethyl]-4-methoxy-benzamide] returned an inhibition at 10 µM in data set [1] (setting [3]) of 20 to 80%.

Turning to `O=C(NC(=O)c1ccccc1)Nc1cccc(NC(=O)c2ccccc2)c1` [Compound 50, N-[[[-3-(benzoylamino)phenyl]amino]oxomethyl]-benzamide], the inhibition at 10 µM in data set [1] (setting [3]) was over 80%.

In data set [1] (setting [3]), `COc1cc(C(=O)NC(=S)Nc2cccc(NC(=O)Nc3ccccc3)c2)cc(OC)c1OC` [Compound 51, 3,4,5-trimethoxy-N-(3-(3-phenylureido)phenylcarbamothioyl)-benzamide] had an inhibition at 10 µM of over 80%. In addition, in data set [1] (setting [4]), the IC50 fell in the range of 1 to 3 µM.

In data set [1] (setting [3]), `COc1cc(C(=O)NC(=S)Nc2cccc(NC(=O)Nc3ccc(-c4ccccc4)cc3)c2)cc(OC)c1OC` [Compound 52, N-(3-(3-biphenyl-4-ylureido)phenylcarbamothioyl)-3,4,5-trimethoxybenzamide] registered an inhibition at 10 µM of over 80%. In data set [1] (setting [4]), this compound yielded a 50% inhibitory concentration (IC50) of 0.01 to 1 µM.

In turn, `COc1cc(C(=O)NC(=O)Nc2cccc(-c3cc4ccccc4[nH]3)c2)cc(OC)c1OC` [Compound 53, N-(3-(1H-indol-2-yl)phenylcarbamoyl)-3,4,5-trimethoxybenzamide] registered an inhibition at 10 µM in data set [1] (setting [3]) of over 80%. The IC50 in data set [1] (setting [4]) lay within 0.01 to 1 µM.

`COc1cc(C(=O)NC(=S)Nc2cccc(-c3cn4ccccc4n3)c2)cc(OC)c1OC` [Compound 55, N-(3-(imidazo[1,2-a]pyridin-2-yl)phenylcarbamothioyl)-3,4,5-trimethoxybenzamide] came in with an inhibition at 10 µM in data set [1] (setting [3]) of over 80%. In data set [1] (setting [4]), this compound had an IC50 of 0.01 to 1 µM.

For the compound `COc1cc(C(=O)NC(=S)Nc2ccc(C)c(-c3nc4ccccc4[nH]3)c2)cc(OC)c1OC` [Compound 56, N-(3-(1H-benzo[d]imidazol-2-yl)-4-methylphenylcarbamothioyl)-3,4,5-trimethoxybenzamide], in data set [1] (setting [3]), the inhibition at 10 µM was 20 to 80%.

Regarding `COc1cc(C(=O)NC(=S)Nc2cccc(-n3ccc4ccccc43)c2)cc(OC)c1OC` [Compound 57, N-(3-(1H-indol-1-yl)phenylcarbamothioyl)-3,4,5-trimethoxybenzamide], the inhibition at 10 µM in data set [1] (setting [3]) is over 80%. In addition, in data set [1] (setting [4]), the concentration for half-maximal inhibition (IC50) was 1 to 3 µM.

For `COc1cc(C(=O)NC(=S)Nc2cccc(-c3cn4ccsc4n3)c2)cc(OC)c1OC` [Compound 58, N-(3-(imidazo[2,1-b]thiazol-6-yl)phenylcarbamothioyl)-3,4,5-trimethoxybenzamide], the inhibition at 10 µM in data set [1] (setting [3]) was over 80%. The concentration for half-maximal inhibition (IC50) in data set [1] (setting [4]) was 1 to 3 µM.

`COc1cc(C(=O)NC(=O)Nc2cccc(NC(=O)Nc3ccc(-c4ccccc4)cc3)c2)cc(OC)c1OC` [Compound 59, N-(3-(3-biphenyl-4-ylureido)phenylcarbamoyl)-3,4,5-trimethoxybenzamide]: in data set [1] (setting [3]), the inhibition at 10 µM was over 80%.

Turning to `CC1=C2C[C@H]3[C@@H](CC=C4C[C@@H](O)CC[C@@]43C)[C@@H]2CC[C@]12O[C@@H]1C[C@H](C)CN[C@H]1[C@H]2C` [Cyclopamine, reference compound], the Bodipycyclopamine binding competition result in data set [2] is “binding competition was observed”.

For the compound “N-[[[3-(benzoylamino)phenyl]amino]thioxomethyl]-3,4,5-methoxy-benzamide [Compound 38]”, the “% INHIBITION of alkaline phosphatase activity” value in data set [1] (10 μM test compound, percentage of alkaline phosphatase activity induced by SAG) was “A (the letter A corresponds to an inhibition of more than 80%)”. Also, the values for the half-maximal inhibitory concentration (IC50) in data set [1] (after induction by 0.1 μM SAG) and in data set [2] were 0.01 to 1 µM and 0.5 µM, respectively. Also, in data set [2], the Bodipycyclopamine binding competition result is on record as “binding competition was observed”.
